Columns and labels:
[1] = test system: carrageenin-induced edema; experiment: Carrageenin-induced footpad edema method; type: in vivo, Wistar rats; conditions: 100 mg/kg oral; 5 hours after λ-carrageenin injection
Experimental: The anti-inflammatory effect of sphingomyelin was tested by a carrageenin-induced footpad edema method. Specifically, a test subject shown in Table 15 was suspended in an aqueous solution containing 0.5% carboxymethylcellulose and orally administered (100 mg/kg) to male Wistar rats (body weight: 110 to 130 g, 8 individuals per group) according to the method of Winter et al. (Proceedings of the Society for Experimental Biology & Medicine, vol. 111, pp. 554, 1962). […] An aqueous solution containing 0.5% carboxymethylcellulose and no test substance was administered to rats in a control group. A rate of increase in footpad volume (V0) attributed to the injection of λ-carrageenin was measured in the control group in the same way as above. An carrageenin-induced edema inhibition rate (%) was calculated according to the calculation formula: (V0−V1)×100/V0 and used as the anti-inflammatory activity of the test substance. A higher value of this inhibition rate indicates higher anti-inflammatory activity.

[2] = test system: sialomucin content in the saliva; experiment: Effect of promoting sialomucin secretion: sialomucin content in rat saliva; type: in vivo, SD rats; conditions: 7th day of experimental diet containing 1% of the substance
Experimental: Seven-week-old male SD rats (manufactured by Charles River Laboratories, Japan, Inc) were raised under conditions involving humidity of 60%, room temperature of 24° C., and light-dark (12 hour/12 hour) control. All the rats were preliminarily raised for 1 week with a standard diet and then divided into 3 groups each containing 12 individuals. These groups were allowed to freely take their respective experimental diets and raised for 1 week. Rat saliva was collected on the 7th day after the administration of experimental diets. A sialomucin content in the saliva was measured by high-performance liquid chromatography. […] In this context, a sialomucin content in the saliva was measured by the following method: 0.2 ml of a Nembutal solution was intramuscularly injected to rats fasted for 2 hours or longer. After anesthesia, a solution of pilocarpine hydrochloride serving as a saliva secretion promoter was intramuscularly injected thereto. […] A sialomucin content in the sialomucin fraction was quantified with a Sialic Acid Fluorescence Labeling Kit (Takara Bio Inc.). […] Free N-acetyl sialic acid or O-acetylated sialic acid was reacted at 55° C. for 2.5 hours by the addition of a DMB reagent as a fluorescence labeling agent and then quantified by high-performance liquid chromatography.

cholera toxin = conditions: in vivo

Molecule: COc1ccc2c(c1)c(CC(=O)O)c(C)n2C(=O)c1ccc(Cl)cc1 [Indomethacin]
- Inhibition rate [1]: 37.5%

Molecule: CC(=O)N[C@H]1[C@H]([C@H](O)[C@H](O)CO)OC(O)(C(=O)O)C[C@@H]1O (stereo partly shown) [Sialic acid (derived from milk), Sialic acid]
- Inhibition rate [1]: 38.1%

Molecule: sialyllactose [SL, reference compound]
- Sialomucin content [2]: 24.9 ± 3.1 µg/µL
- Inhibition rate (cholera toxin): 37.9 ± 2.9%

Reference: patent US8486916B2, “Medicine, food and drink or feed containing sphingomyelin” (Megmilk Snow Brand Co., Ltd., priority 2005, dated 2013)
